# Test results published in ChEMBL document CHEMBL6078624, “Structure-based discovery of a 4,5-Dihydropyrazole-cored PET ligand for imaging of receptor-interacting serine/threonine-protein kinase 1 (RIPK1) in the brain” (Eur J Med Chem, 2024).
# Assays:
# [1] = Drug uptake in macaque brain measured at 5 mins by micro-PET imaging analysis; format: ADME, tissue-based; settings: macaca, in vivo
# [2] = Inhibition of TSZ-induced necroptosis in human HT-29 cells by CellTiter-Glo luminescent cell viability assay
SUVmax [1],SMILES,EC50 [2] [nM]
~ 3.7,CC(C)(C)C(=O)N1N=CC[C@H]1c1cccc([11CH3])c1,
,O=C(c1ccccn1)N1CCC(C(=O)N2N=CCC2c2cc(F)cc(F)c2)CC1 (stereo not given),47.7
,O=C(c1ccccn1)N1CCC(C(=O)N2N=CCC2c2cccc(F)c2)CC1 (stereo not given),68.2
,O=C(c1cccc(F)n1)N1CCC(C(=O)N2N=CCC2c2cccc(F)c2)CC1 (stereo not given),98.3
,O=C(c1cccc(F)n1)N1CCC(C(=O)N2N=CCC2c2ccccc2)CC1 (stereo not given),242
